Experimental data taken from US7439372B2, “Therapeutic compounds” (Allergan, Inc., priority 2006, dated 2008).

Assays:
[1] = Intraocular pressure in dog; format: in vivo; details: Conc. 0.1% (g/100 mL)
From the text: U.S. patent application Ser. No. 11/553,143, filed on Oct. 26, 2006, incorporated by reference herein, describes the methods used to obtain the in vitro data in the table below.

Ocular hyperemia in dog = format: in vivo; details: Conc. 0.1% (g/100 mL)
[2] = Intraocular pressure in monkey; format: in vivo; details: Conc. 0.1% (g/100 mL)
EP4 receptors = target: T1, EP4 receptors (Homo sapiens, UniProt P35408); experiment: Radioligand binding, [3H]PGE2, HEK-293 cells stably expressing EP4 receptors; details: [3H]PGE2 competition
T1 construct: expressed in transfected cells; host or cells: HEK-293
Protocol: (§1) HEK-293 cells stably expressing the human or feline FP receptor, or EP1, EP2, or EP4 receptors were washed with TME buffer, scraped from the bottom of the flasks, and homogenized for 30 sec using a Brinkman PT 10/35 polytron. TME buffer was added to achieve a final 40 ml volume in the centrifuge tubes (the composition of TME is 100 mM TRIS base, 20 mM MgCl2, […]; 10N HCl is added to achieve a pH of 7.4).
(§2) The cell homogenate was centrifuged at 19000 r.p.m. for 20 min at 4° C. using a Beckman Ti-60 rotor. The resultant pellet was resuspended in TME buffer to give a final 1 mg/ml protein concentration, as determined by Biorad assay. Radioligand binding competition assays vs. [^3H-]17-phenyl PGF2α (5 nM) were performed in a 100 μl volume for 60 min. Binding reactions were started by adding plasma membrane fraction. The reaction was terminated by the addition of 4 ml ice-cold TRIS-HCl buffer and rapid filtration through glass fiber GF/B filters using a Brandel cell harvester. The filters were washed 3 times with ice-cold buffer and oven dried for one hour.
(§3) [^3H-]PGE2 (specific activity 180 Ci mmol) was used as the radioligand for EP receptors. [^3H]17-phenyl PGF2α was employed for FP receptor binding studies. Binding studies employing EP1, EP2, EP4 and FP receptors were performed in duplicate in at least three separate experiments. A 200 μl assay volume was used. Incubations were for 60 min at 25° C. and were terminated by the addition of 4 ml of ice-cold 50 mM TRIS-HCl, followed by rapid filtration through Whatman GF/B filters and three additional 4 ml washes in a cell harvester (Brandel). Competition studies were performed using a final concentration of 5 nM [^3H]-PGE2, or 5 nM [^3H] 17-phenyl PGF2α and non-specific binding determined with 10^−5M of unlabeled PGE2, or 17-phenyl PGF2α, according to receptor subtype studied.

hEP4/Gqs5 = target: T2, hEP4/Gqs5 (Homo sapiens, UniProt P35408); experiment: FLIPR calcium signal, HEK-293(EBNA) cells expressing hEP4/Gqs5; format: cell-based
T2 construct: expressed in transfected cells; host or cells: HEK-293(EBNA)
Protocol: HEK-293(EBNA) cells, stably expressing one type or subtype of recombinant human prostaglandin receptors (prostaglandin receptors expressed: hDP/Gqs5; hEP1; hEP2/Gqs5; hEP3A/Gqi5; hEP4/Gqs5; hFP; hIP; hTP), were cultured in 100 mm culture dishes in high-glucose DMEM medium containing 10% fetal bovine serum, 2 mM l-glutamine, 250 µg/ml geneticin (G418) and 200 μg/ml hygromycin B as selection markers, and 100 units/ml penicillin G, 100 µg/ml streptomycin and 0.25 μg/ml amphotericin B.
Cells were seeded at a density of 5×10^4 cells per well in Biocoat® Poly-D-lysine-coated black-wall, clear-bottom 96-well plates (Becton-Dickinson) and allowed to attach overnight in an incubator at 37° C. Cells were then washed two times with HBSS-HEPES buffer (Hanks Balanced Salt Solution without bicarbonate and phenol red, 20 mM HEPES, pH 7.4) using a Denley Cellwash plate washer (Labsystems). After 45 minutes of dye-loading in the dark, using the calcium-sensitive dye Fluo-4 […] at a final concentration of 2 μM, plates were washed four times with HBSS-HEPES buffer to remove excess dye leaving 100 μl in each well. Plates were re-equilibrated to 37° C. for a few minutes.
Cells were excited with an Argon laser at 488 nm, and emission was measured through a 510-570 nm bandwidth emission filter (FLIPR™, Molecular Devices, Sunnyvale, Calif.). Drug solution was added in a 50 µl volume to each well to give the desired final concentration. The peak increase in fluorescence intensity was recorded for each well. On each plate, four wells each served as negative (HBSS-HEPES buffer) and positive controls (standard agonists: BW245C (hDP); PGE2 (hEP1; hEP2/Gqs5; hEP3A/Gqi5; hEP4/Gqs5); PGF2α (hFP); carbacyclin (hIP); U-46619 (hTP), depending on receptor). The peak fluorescence change in each drug-containing well was then expressed relative to the controls.
Compounds were tested in a high-throughput (HTS) or concentration-response (CoRe) format. In the HTS format, forty-four compounds per plate were examined in duplicates at a concentration of 10^−5 M. To generate concentration-response curves, four compounds per plate were tested in duplicates in a concentration range between 10^−5 and 10^−11 M. The duplicate values were averaged. In either, HTS or CoRe format each compound was tested on at least 3 separate plates using cells from different passages to give an n≧3.

EP2 = EP2 (Homo sapiens, UniProt P43116); experiment: Competition binding, [3H]PGE2, HEK 293 cells stably expressing human EP2 receptors; set-up: expressed in transfected cells; host or cells: HEK 293; details: [3H]PGE2 competition
Protocol: Competition binding experiments were performed in a medium containing Hank's balanced salt solution, Hepes 20 mM, pH 7.3, membranes (˜60 μg protein) or 2×10^5 cells from HEK 293 cells stably expressing human EP2 receptors, [^3H]PGE2 (10 nM) and various concentrations of test compounds in a total volume of 300 μl. Reaction mixtures were incubated at 23° C. for 60 min, and were filtered over Whatman GF/B filters under vacuum. Filters were washed three times with 5 ml ice-cold buffer containing 50 mM Tris/HCl (pH 7.3). Non-specific binding was estimated in the presence of excess unlabeled PGE2 (10 μM). Binding data fitted to the binding model for a single class of binding sites, using nonlinear regression analysis. IC50 values thus obtained were converted to Ki using the equation of Ki=(IC50/(1+[L]/KD) where [L] represents PGE2 concentration (10 nM) and KD the dissociation constant for [3H]PGE2 at human EP2 receptors (40 nM).
as §1, §2, §3

T1 sequence (P35408 whole entry): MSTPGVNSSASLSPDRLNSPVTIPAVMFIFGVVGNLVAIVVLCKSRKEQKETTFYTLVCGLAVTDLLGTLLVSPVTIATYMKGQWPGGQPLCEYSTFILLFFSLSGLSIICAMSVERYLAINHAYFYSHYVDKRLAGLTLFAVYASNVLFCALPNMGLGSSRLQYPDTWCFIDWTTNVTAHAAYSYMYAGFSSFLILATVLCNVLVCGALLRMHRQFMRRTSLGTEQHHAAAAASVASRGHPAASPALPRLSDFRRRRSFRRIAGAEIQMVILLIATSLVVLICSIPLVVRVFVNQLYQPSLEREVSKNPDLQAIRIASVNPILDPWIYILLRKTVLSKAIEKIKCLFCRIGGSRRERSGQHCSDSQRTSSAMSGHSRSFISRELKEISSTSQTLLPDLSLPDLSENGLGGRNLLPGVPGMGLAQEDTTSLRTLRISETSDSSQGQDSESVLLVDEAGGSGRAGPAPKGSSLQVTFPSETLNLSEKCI
T2 sequence (P35408 whole entry): as above
Sequence of EP2 (P43116 whole entry): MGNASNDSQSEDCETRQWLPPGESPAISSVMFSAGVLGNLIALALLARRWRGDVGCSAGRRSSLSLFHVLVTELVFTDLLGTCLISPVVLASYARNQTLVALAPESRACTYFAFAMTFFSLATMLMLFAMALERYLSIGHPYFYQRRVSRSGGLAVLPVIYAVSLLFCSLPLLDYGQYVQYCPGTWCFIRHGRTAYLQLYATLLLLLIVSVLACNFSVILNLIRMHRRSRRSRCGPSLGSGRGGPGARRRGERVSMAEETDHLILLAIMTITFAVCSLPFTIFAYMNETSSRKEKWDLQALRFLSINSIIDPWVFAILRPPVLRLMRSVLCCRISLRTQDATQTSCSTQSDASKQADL

Row | DOG Max. hyperemia (Ocular hyperemia in dog) | Ki (EP4 receptors) [nM] | Ca2+ Signal-EC50(nM) EP4 (hEP4/Gqs5) | Ki (EP2) [nM] | SMILES | DOG Max. ΔIOP (%) [1] [%] | MONKEY Max. ΔIOP (%) [2] [%]
1 | 1.6 |  |  |  | CCCCCC(O)c1ccc([C@H]2C(=O)CC[C@@H]2CCCc2ccc(C(=O)OC(C)C)s2)cc1 (some centres unmarked) [compound 1] | −37 | 
2 | 0.4 |  |  |  | CCCCCC(O)c1ccc([C@@H]2[C@@H](CCCc3ccc(C(=O)OC(C)C)s3)CCC2(Cl)Cl)cc1 (some centres unmarked) [compound 2] | −6 | −21
3 |  | 4330 | notactive | > 10000 | CCCCCC(O)c1ccc([C@H]2C(=O)C=C[C@@H]2C/C=C\CCCC(=O)O)cc1 (some centres unmarked) [compound 4] |  | 
